The values below come from US12023365B2, “Sustained release formulations of Crocus sativus” (COUNCIL OF SCIENTIFIC & INDUSTRIAL RESEARCH, priority 2017, dated 2024).

Series [1] concerns scopolamine induced memory deficit. In words: Scopolamine induced dementia, passive avoidance test. It counts as in vivo. The conditions noted are these: Swiss albino mice, 2 mg/kg. The text has this: Animals were randomized to their body weight (n=6-8). All animals were then habituated to experimental apparatus (Passive avoidance instrument of make—UGO Basile Biological Research Apparatus Italy) prior to the experiment. For habituation, animals were placed gently in the light compartment of the apparatus. After 5 seconds guillotine door was opened and animal allowed entering the dark compartment without giving the shock. Animals that took more than 100 seconds to enter the dark room were eliminated from the experiments. For acquisition trial the animals were placed in light compartment and allowed to enter the dark compartment through guillotine door. As soon as the animal entered to the dark compartment, door was closed and animal was delivered a foot shock (0.5 mA current) immediately for the duration of 5 seconds. Animals were then removed from apparatus after 20 seconds and placed temporarily in its home cage. Repeated the same procedure (keeping the gap between acquisition trials to 5 minutes) till the animal remained in the light compartment for consecutive 120 seconds. Retention was recorded at day 2 without shock in dark chamber. Increase in transfer latency time from light to dark chamber indicated learning in animals. Rivastigmine was used as positive control in this study. […] Percentage (%) change in transfer latency as compared with control on retention trial was calculated. […]

The conditions of series [2]: literature (Asai 2005; Liu and Qian 2002); cited from earlier work.

As for `CCN(C)C(=O)Oc1cccc([C@H](C)N(C)C)c1` [rivastigmine], the “effect on latency time (positive control)” value in series [1] is “significant reduction in latency time”.
With `CC(/C=C/C=C(\C)C(=O)O)=C\C=C\C=C(C)\C=C\C=C(/C)C(=O)O` [crocetin], in series [2], the plasma half-life was ~2 h.
